The values below come from US8278442B2, “Bicyclic aryl and heteroaryl compounds for the treatment of metabolic disorders” (Prosidion Limited, priority 2007, dated 2012).

Some results are limits rather than exact numbers.

Assay [1] addresses T1, mu-opioid receptor (Homo sapiens, UniProt P35372). Put plainly: Competition binding assay (3H-DAMGO). The settings on record: mu-opioid receptor expressing membranes, 0.5 nM 3H-DAMGO. As to the method:
Competition Binding Assays
Mu-, kappa- or delta-opioid receptor expressing membranes (5-15 μg/well) were suspended in 50 mM Tris buffer pH 7.6 containing 5 mM MgCl2 and were incubated on 96-well plates with test compound or vehicle (1% DMSO) and either 0.5 nM ^3H-DAMGO, 0.8 nM ^3H—U-69,595 or 1.1 nM ^3H-DPDPE respectively in a total volume of 200 μL for 90 min at rt (22° C.). The contents of the wells were filtered and washed 5 times with chilled 50 mM Tris buffer pH 7.6 through H2O pre-soaked GF/B filters using a Perkin Elmer Filtermate. The filters were dried and upon application of scintillant the bound radioactive content for each well determined by scintillation counting in a Wallac TriLux Microbeta scintillation counter. Non-specific binding was determined in the presence of 2 μM Naloxone. IC50 values were determined by plotting log concentration test compound against specific binding and subsequent Ki values calculated.

For assay [2], the target named is T1, mu-opioid receptor. Nature of the assay: GTPγS functional binding assay. The settings on record: mu-opioid receptor expressing membranes, agonist DAMGO 10 nM, 35S-GTPγS binding. The format is biochemical. Here is the method:
GTPγS Functional Binding Assays
Mu-, kappa- or delta-opioid receptor expressing membranes (5-20 μg/well) were suspended in 50 mM HEPES buffer pH 7.6 containing 3 mM MgCl2, 120 mM NaCl, 150 pM GTPγS, 10 μg/mL saponin and 3 μM GDP (μ-opioid receptor assay) or 5 μM GDP (κ- and δ-opioid receptor assay) and were pre-incubated on 96-well plates with test compound or vehicle (1% DMSO) in a total volume of 160 μL for 10 min at rt (22° C.). Specific agonists DAMGO (10 nM final concentration), U-50,488 (30 nM final concentration) or SNC-80 (10 nM final concentration) were added respectively and the plates pre-incubated for a further 15 min at rt (22° C.) ^35S-GTPγS at a final concentration in the assay of 150 pM was then added to provide a total volume per well of 200 μL and the plates incubated for 45 min at 30° C. The contents of the wells were filtered and washed 5 times with chilled 50 mM Tris buffer pH 7.6 through H2O pre-soaked GF/B filters using a Perkin Elmer Filtermate. The filters were dried and upon application of scintillant the bound radioactive content for each well determined by scintillation counting in a Wallac TriLux Microbeta scintillation counter. Non-specific binding was determined in the presence of 10 μM GTPγS. IC50 values were determined by plotting log concentration test compound against percentage increase over non-stimulated ^35S-GTPγS binding.

T1 sequence (P35372 whole entry, species assumed): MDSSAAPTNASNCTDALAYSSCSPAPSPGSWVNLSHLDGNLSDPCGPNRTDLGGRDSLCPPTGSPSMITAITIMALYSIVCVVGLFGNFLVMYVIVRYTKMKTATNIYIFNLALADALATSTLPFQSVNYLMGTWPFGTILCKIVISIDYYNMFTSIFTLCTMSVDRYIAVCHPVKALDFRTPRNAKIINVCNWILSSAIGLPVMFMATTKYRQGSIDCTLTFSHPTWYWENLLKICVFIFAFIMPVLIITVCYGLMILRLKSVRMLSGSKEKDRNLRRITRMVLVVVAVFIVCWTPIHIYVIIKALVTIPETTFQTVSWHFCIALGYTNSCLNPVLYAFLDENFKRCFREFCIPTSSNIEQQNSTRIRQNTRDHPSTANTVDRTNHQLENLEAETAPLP

In the case of `NC(=O)c1ccc(Oc2ccc(CNC3CCOCC3)c3ccccc23)nc1` [Example 16, 6-{4-[(Tetrahydropyran-4-ylamino)methyl]naphthalen-1-yloxy}nicotinamide], at mu-opioid receptor [1], the Ki was less than 100 nM. The same compound had a half-inhibitory concentration (IC50) on mu-opioid receptor [2] of less than 100 nM.
